Key:
[1] = system: glucose dehydrogenase (GDH); assay: Inhibition of GDH-driven NADH production read out on the paper-based AuNP device; assay type: biochemical, Pseudomonas sp.
Method: (§1) To test the inhibitory effects of Hg(II), different concentrations of Hg(II) was incubated with 0.1 U GDH for 10 min in the presence of 10 mM of glucose and 0.1 M of phosphate buffer solution (pH 7.4) at 25 ° C., then 6 mM of NAD' was added to initiate the enzymatic reaction for […]. The kinetics of the reaction was monitored for the first 6 minutes in a microplate reader to calculate the enzyme's activity. 10 μL of the enzymatic reaction solution were added to 90 μL of 400 μM Au^3+-CTAB solution, and 25 μL of this solution was applied to the device test zone.
The colorimetric results were visualized after 4 minutes and evaluated for the inhibitory effects of these metals by measuring the decrease in the color intensity produced by the enzyme-substrate reaction. Ag(I) and Pb(II) were also tested as potential inhibitors in a similar fashion. Intensity analysis was performed using the ImageJ software.
Clearly, the GDH inhibition and AuNPs dissolution was increased with increasing Hg(II) concentration, with complete dissolution of AuNPs in the testing zone at a Hg(II) ion concentration of 100 μM (FIG. 6B, Hg(II)).
(§2) The resulting solution was then added into a 400 μM of Au^3+-CTAB solution, and 25 μL of this mixture were immediately applied to the testing zone. In the absence of Hg(II), GDH fully converted NAD^+ into NADH after 4 minutes, completely inhibiting AuNP dissolution and leaving the testing zone dark red (FIG. 17A). […] GDH-mediated production of NADH decreased in parallel with the increase of Hg(II) concentration, yielding a lighter readout as increased dissolution of AuNPs occurred (FIG. 17A). […] The color intensity was measured with the ImageJ software and the normalized intensity with different concentrations of Hg(II) was plotted (FIG. 17B). The kinetics of GDH in homogeneous solution was also monitored with or without Hg(II) ions (FIG. 18). Enzyme activity was calculated based on the kinetics of the enzymatic reaction and defined as 100% in the absence of Hg(II).

GDH = details: reference 43; cited from earlier work
[2] = target: glucose dehydrogenase (GDH); assay: GDH activity in homogeneous solution, absorbance change at 340 nm; assay type: biochemical, Pseudomonas sp.; details: Hg(II) 0-200 μM, activity 100% without Hg(II), read-out: IC50 for inhibition of GDH in homogeneous solution
Method: The absorbance change at 340 nm was monitored to calculate enzyme activity. Hg(II) concentrations being tested ranged from 0-200 μM. The enzyme's activity was defined as 100% in the absence of the Hg(II) ion, and as the Hg(II) concentration increased the enzyme's activity decreased.
as §1, with “10 μL of the enzymatic reaction solution were added to 90 μL of 400 μM Au^3+-CTAB solution, and 25 μL of this solution was applied to the device test zone.” left out
as §2, with “zone.” for “zone. In the absence of Hg(II), GDH fully converted NAD^+ into NADH after 4 minutes, completely inhibiting AuNP dissolution and leaving the testing zone dark red (FIG. 17A).”

Molecule	activity of GDH ([1]; 20 μM or higher of the ion, completely white readout)	inhibitory effect on GDH (literature) (GDH)	inhibitory effect on GDH ([1]; 20 to 100 μM of the ion, no dissolution of AuNPs observed)	enzyme activity ([1]; 2.5 μM of the ion, small decrease of color intensity)	inhibition of AuNPs dissolution ([1]; 20 μM of the ion)	GDH activity ([1]; 20 μM of the ion, light pink color)	inhibition of GDH ([1]; 100 μM of the ion, completely white readout, complete dissolution of AuNPs)	IC50 ([1]; 0.1 U GDH, 0-200 μM Hg(II), 400 μM Au3+-CTAB, 4-min reaction, ImageJ intensity) [µM]	IC50 [2] [µM]
O=[N+]([O-])[O-].[Ag+] [Ag(I), silver nitrate]	completely inhibited	strong inhibitors							
lead(II) acetate trihydrate [Pb(II)]		no inhibitory effect	no inhibitory effect						
CC(=O)[O-].CC(=O)[O-].[Hg+2] [Hg(II), mercury(II) acetate]		strong inhibitors		slightly inhibited	approximately 30%	significantly inhibited	complete inhibition	20	18
